Article PMC2714906 (Endocrine, 2009)
“Also recorded” adds a separate entry of the source.

Columns and labels:
[1] = system: IV NPY cardiovascular response; experiment: BIBO3304 effect on IV NPY, NPY analog and ANG II cardiovascular responses; type: in vivo, rat (Sprague Dawley); conditions: for PRE vs POST BIBO3304 pressor response, in words: IV peptide
rat Y1 receptor = experiment: Rat Y1 receptor binding, competition with 125I-pPYY; conditions: competition with iodinated PYY; CHO cells expressing rat Y1 receptor
[2] = system: sensory neuron-specific receptor (SNSR1); conditions: ref [65], [66]; cited from earlier work
[3] = IV peptide MAP and HR cardiovascular responses in urethane-anesthetized rats; type: in vivo, rat (Sprague Dawley); conditions: for Cardiovascular response (MAP and HR), in words: IV γ-MSH 15 nmol or NPY 5 nmol; for Cardiovascular response (MAP and HR), in words / Increase in MAP: rats; for Increase in MAP: IV, compare Fig. 5a with Fig. 4b
Y1 receptor = type: cell-based; conditions: 50 nM, HEK tsA201 cells expressing Y1 receptor and N-type VDCC; for Reduction of IBa (N-type VDCC barium current): whole-cell, 22°C, pH 7.20
[4] = cited from earlier work; for Effect on central regulation of feeding behavior, in words: peripheral administration, ref [15], [45]
NPFF receptors = conditions: ref [16]–[19]; cited from earlier work
other Y receptors = conditions: cited from earlier work; for Effects at other Y receptors, in words: ref [15]; for Binding to other Y receptors, in words: ref [23]
[5] = system: IV γ-MSH cardiovascular response; experiment: BIBO3304 effect on IV γ-MSH and γ-MSH6–12 cardiovascular responses; type: in vivo, rat (Sprague Dawley)
[6] = cited from earlier work
[7] = system: sensory neuron-specific receptor (SNSR1); conditions: ref [65], [66]; cited from earlier work; remark: listed apart in the source
[8] = ref [8], cited from earlier work
[9] = NPY 5 nmol IV, change from baseline, mean ± standard error
[10] = ICV BIBO3304, NPY 5 nmol IV, PRE vs POST, n = 7
[11] = central BIBO3304, summary in Discussion

angiotensin II [ANG II]
Peak MAP response, POST ICV BIBO3304 ([1]; IV ANG II 5 nmol, POST, mean ± standard error): 54 ± 2 mmHg | Peak MAP response, PRE ICV BIBO3304 ([1]; IV ANG II 5 nmol, PRE, mean ± standard error): 66 ± 6 mmHg | PRE vs POST BIBO3304 pressor response, in words ([1]; ICV or IV BIBO3304): not significantly different at pre and post central BIBO3304 administration | PRE vs POST BIBO3304 pressor response, in words ([1]; ICV or IV BIBO3304, listed as AII): not significantly different

FMRFamide
Competition for rat Y1 receptor binding, in words (rat Y1 receptor): failed to bind to these receptors; also recorded: Neither γ-MSH nor FMRFamide (a model RFamide peptide) competed with iodinated PYY for binding to the rat Y1 receptors

neuropeptide Y [NPY]
SNSR1 binding, in words [2]: nanomolar NPY binding | Duration of pressor response, in words ([3]; IV NPY 5 nmol compared to γ-MSH, P <0.05, n = 7): lasted significantly longer than that of γ-MSH for a relatively similar change in peak MAP | Cardiovascular response (MAP and HR), in words [3]: during the mid-point of the pressor response the bradycardia reversed to a cardioaccelerator response; also recorded: produces prolonged pressor and HR responses | Increase in MAP ([3]; mean ± standard error): 41.9 ± 4 mmHg | Peak bradycardia response [3, 9]: −53 ± 18 BPM | Peak tachycardia response [3, 9]: 49 ± 14 BPM | Baseline HR ([3]; baseline of the NPY 5 nmol IV group, mean ± standard error): 360 ± 11 BPM | Effect on N-type VDCC / IBa, in words (Y1 receptor): significant decreases in N-type VDCC activity; also recorded: significantly different from the effects of γ-MSH or γ-MSH6–12 | Reduction of IBa (N-type VDCC barium current) (Y1 receptor): ~50%

NC(=O)NCc1ccc(CNC(=O)[C@@H](CCCN=C(N)N)NC(=O)C(c2ccccc2)c2ccccc2)cc1 [BIBO3304]
Effect on central regulation of feeding behavior, in words [4]: affects central regulation of feeding behavior | Binding at NPFF receptors, in words (NPFF receptors): nanomolar-binding efficacy at NPFF receptors | Area under the MAP response curve, effect of BIBO3304, in words ([1]; ICV BIBO3304, IV NPY agonists 5 nmol): Only the area under the NPY MAP response curve is reduced by drug treatment | Effect on IV NPY cardiovascular response, in words ([1]; ICV BIBO3304, NPY 5 nmol IV): significant decrease in the IV NPY cardiovascular response; also recorded: blood pressure responses of NPY are significantly reduced | Decrease in IV NPY-induced MAP response [1, 10]: > 40% | Decrease in total NPY pressor response (MAP curve area) [1, 10]: > 70% | Effect on γ-MSH6–12 and NPY-CVa MAP responses, in words ([1]; ICV BIBO3304, two graded doses of either peptide IV (Fig. 5a)): produced significant MAP reductions for both doses of either peptide | Effect on (D-Arg25) NPY MAP / total pressor response, in words ([1]; ICV or IV BIBO3304, (D-Arg25) NPY IV): did not change the MAP response of D-Arg25 NPY; also recorded: did not significantly affect the MAP response or total pressor response of a Y1 receptor agonist (D-Arg25) NPY; also recorded: no significant effect on D-Arg25 NPY | Effect on γ-MSH6–12 and NPY-CVa MAP responses, in words (IV BIBO3304) ([1]; IV BIBO3304, two graded doses IV (Fig. 5b)): significant reductions in MAP for both doses of γ-MSH6–12 and NPY-CVa | Effect on IV NPY-CVa cardiovascular activity, in words ([1]; central or peripheral BIBO3304, NPY-CVa IV): IV NPY-CVa cardiovascular activity was sensitive to central or peripheral BIBO3304 administration | Reduction of IV NPY-CVa pressor response ([1]; central or systemic BIBO3304, NPY-CVa 5 or 20 nM doses (so in the source) IV): up to 55% | Effects at other Y receptors, in words (other Y receptors): not reported to have significant effects at other Y receptors | Binding to other Y receptors, in words (other Y receptors): none of these receptors shows significant binding of BIBO3304 | Attenuation of total γ-MSH pressor response (MAP curve area, height × width) ([5]; ICV BIBO3304, IV γ-MSH, PRE vs POST, n = 7): > 60% | Attenuation of MAP response of γ-MSH or γ-MSH6–12 (either peptide) ([5]; ICV BIBO3304, several IV doses of γ-MSH and γ-MSH6–12, subsequent study): > 50% | Attenuation of pressor responses of γ-MSH and γ-MSH6–12, in words ([5]; IV or ICV BIBO3304, peptide IV): significantly attenuated the pressor responses of γ-MSH and the γ-MSH analog | Reduction in total γ-MSH pressor response ([5]; central BIBO3304, IV γ-MSH, summary in Discussion): 75% | Inhibition of HR response to several IV γ-MSH doses [5, 11]: ~50% | Inhibition of peak MAP response to several IV γ-MSH doses [5, 11]: ~50% | Change in baseline cardiovascular parameters ([5]; central or peripheral BIBO3304 alone, n = 7): no significant changes in any baseline cardiovascular parameters

Des-AA10–17-cyclo-7/21[Cys7,21, Pro34] NPY [NPY-CVa]
Pressor activity of NPY-CVa, in words ([6]; ref [26]): significant pressor activity | Increase in MAP ([3]; mean ± standard error): 26 ± 3 mmHg | Orexigenic activity, in words ([4]; ref [23], [26]): without orexigenic activity; also recorded: lacks Y1-like orexigenic activity | Binding to other Y receptors, in words (other Y receptors): significant binding to other Y receptors

NC(N)=NCCC[C@@H](NC(=O)C(c1ccccc1)c1ccccc1)C(=O)NCc1ccc(O)cc1 [BIBP3226]
Effect on central regulation of feeding behavior, in words [4]: affects central regulation of feeding behavior | Binding at NPFF receptors, in words (NPFF receptors): nanomolar-binding efficacy at NPFF receptors | Effects at other Y receptors, in words (other Y receptors): not reported to have significant effects at other Y receptors

gamma-melanocyte stimulating hormone [γ-MSH]
Pressor response after forebrain CVO lesions, in words ([6]; IV, forebrain CVO lesions, ref [42]): attenuation of the IV γ-MSH cardiovascular response | Rightward shift of pressor dose–response curve ([6]; carotid versus femoral artery administration, ref [31]): 10 fold | Mechanism of MAP and HR effects / baroreceptor reflex, in words ([6]; ref [9]–[11], [33]): total inhibition of the baroreceptor reflex; also recorded: MAP and HR effects are due to an increase in preganglionic sympathetic drive, with no contribution of adrenal medullary catecholamine release | Competition for rat Y1 receptor binding, in words (rat Y1 receptor): failed to compete with iodinated PYY for binding to the rat Y1 receptor; also recorded: Neither γ-MSH nor FMRFamide (a model RFamide peptide) competed with iodinated PYY for binding to the rat Y1 receptors | Cardiovascular response (MAP and HR), in words [3]: produced both pressor and cardioaccelerator effects, with no evidence of a baroreceptor-mediated bradycardia; also recorded: produces a marked pressor and tachycardia response | Effect on N-type VDCC / IBa, in words (Y1 receptor): does not affect Y1 receptor agonist binding capacity or signaling; also recorded: did not bind to or allosterically regulate the Y1 receptor; also recorded: neither γ-MSH nor γ-MSH6–12 affected VDCC activity; also recorded: did not produce a significant inhibition of IBa relative to control | Reduction of IBa (N-type VDCC barium current) (Y1 receptor): 3–9% | SNSR1 activation [7]: ~40 nM | Rise in MAP ([8]; mouse models): 38 mmHg | Pressor effect in MC3-R and MC4-R knockout mice, in words ([8]; peripheral administration): these effects can be elicited following peripheral administration of γ-MSH in the MC3-R and MC4-R knockout mice

(D-Arg25) NPY
PRE vs POST BIBO3304 pressor response, in words ([1]; ICV or IV BIBO3304, listed as (D-Arg^25) NPY): not significantly different | PRE vs POST BIBO3304 pressor response, in words ([1]; ICV or IV BIBO3304, listed as D-Arg25 NPY): lack of a significant difference in the PRE and POST cardiovascular responses
